One data set deals with T1, Human 5-HT6 receptor (Homo sapiens, UniProt P50406).
T1 construct: expressed in transfected cells; host or cells: HEK293
The data set can be described thus: Binding assay for human 5-HT6 receptor ([3H] LSD radioligand). The conditions noted are these: 100 nM test compound, [3H] LSD 1.5 nM, human recombinant receptor in HEK293 cells; for inhibition at 0.1 µM: read-out: % Inhibition of specific binding at 100 nM. How it is done: Binding Assay for Human 5-HT6 Receptor
Compounds can be tested according to the following the procedures. Materials and Methods:
Receptor source: Human recombinant expressed in HEK293 cells
Radioligand: [^3H] LSD (60-80 Ci/mmol)
Final ligand concentration—[1.5 nM]
Non-specific determinant: Methiothepin mesylate—[0.1 μM]
Reference compound: Methiothepin mesylate
Positive control: Methiothepin mesylate
Reactions were carried out in […] TRIS-HCl (pH 7.4) containing 10 μM MgCl2, 0.5 mM EDTA for 60 minutes at 37° C. The reaction was terminated by rapid vacuum filtration onto glass fiber filters. Radioactivity trapped onto the filters was determined and compared to control values in order to ascertain any interactions of test compound(s) with the cloned serotonin 5-HT6binding site.
Literature Reference: Monsma F. J. Jr., et al., Molecular Cloning and Expression of Novel Serotonin Receptor with High Affinity for Tricyclic Psychotropic Drugs. Mol. Pharmacol. (43): 320-327 (1993).

Counter-ions that a name gives are not always drawn.

T1 sequence (P50406 whole entry): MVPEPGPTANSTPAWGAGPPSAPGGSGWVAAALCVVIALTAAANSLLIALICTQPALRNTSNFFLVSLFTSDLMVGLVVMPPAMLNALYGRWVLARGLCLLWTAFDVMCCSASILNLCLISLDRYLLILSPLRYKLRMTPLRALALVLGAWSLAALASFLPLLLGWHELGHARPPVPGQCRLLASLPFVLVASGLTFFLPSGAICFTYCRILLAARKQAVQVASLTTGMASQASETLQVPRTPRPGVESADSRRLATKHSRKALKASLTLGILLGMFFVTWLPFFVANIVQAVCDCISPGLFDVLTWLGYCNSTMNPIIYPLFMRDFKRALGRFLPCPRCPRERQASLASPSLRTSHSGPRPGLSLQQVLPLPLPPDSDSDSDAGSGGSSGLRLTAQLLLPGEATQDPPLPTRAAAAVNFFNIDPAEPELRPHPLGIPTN

With `CCOc1ccc2c(ccn2S(=O)(=O)c2cccc(CN3CCN(C)CC3)c2)c1` [Example 11, 5-Ethoxy-1-[3-(4-methylpiperazin-1-ylmethyl)benzenesulfonyl]-1H-indole], the inhibition at 0.1 µM at Human 5-HT6 receptor was found to be 63.7%.

For `CCN1CCN(Cc2cc(S(=O)(=O)n3ccc4ccccc43)ccc2Br)CC1` [Example 1, 1-1-[4-Bromo-3-(4-ethylpiperazin-1-ylmethyl)benzenesulfonyl]-1H-indole], on Human 5-HT6 receptor, the “% Inhibition of specific binding at 100 nM” value was 78.91%. For `CCN1CCN(Cc2cc(S(=O)(=O)n3cc(Br)c4cc(OC)ccc43)ccc2Cl)CC1.Cl.Cl`, the melting point was in the range of 216.9 to 219.7 °C. Same read-out and setting: the same measure for `COc1ccc2c(c1)c(C)cn2S(=O)(=O)c1ccc(Br)c(CN2CCN(C)CC2)c1.Cl.Cl`: 214.3 to 215.7 °C; for `COc1ccc2c(c1)c(Br)cn2S(=O)(=O)c1ccc(Cl)c(CN2CCN(C)CC2)c1.Cl.Cl`: 195.4 to 199.3 °C. On the same count and under the same terms, in the case of `COc1ccc2c(c1)c(C)cn2S(=O)(=O)c1ccc(C)c(CN2CCN(C)CC2)c1.Cl.Cl` it was 190.32 °C; in that of `CCN1CCN(Cc2cc(S(=O)(=O)n3cc(C)c4cc(OC)ccc43)ccc2C)CC1.Cl.Cl`, 226.99 °C.

For the compound `CCN1CCCN(Cc2cc(S(=O)(=O)n3cc(C)c4ccccc43)ccc2Cl)CC1` [Example 45, 1-[4-Chloro-3-(4-ethyl-[1,4]diazepan-1-ylmethyl)benzenesulfonyl]-3-methyl-1H-indole dihydrochloride], the inhibition at 0.1 µM on Human 5-HT6 receptor was found to be 98.5%. The compound `CCN1CCN(Cc2cc(S(=O)(=O)n3cc(C)c4cc(OC)ccc43)ccc2Br)CC1.Cl.Cl` came in with a melting point of 211.3 to 212.1 °C. On to `CCN1CCN(Cc2cc(S(=O)(=O)n3ccc4cc(OC)ccc43)ccc2C)CC1.Cl.Cl`, for which the melting point was found to be 160.94 °C. Consider `CN1CCN(Cc2cccc(S(=O)(=O)n3ccc4cc(F)ccc43)c2)CC1` [Example 10, 5-Fluoro-1-[3-(4-methylpiperazin-1-ylmethyl)benzenesulfonyl]-1H-indole], for which, at Human 5-HT6 receptor, the inhibition at 0.1 µM came to 79.2%.

Turning to `COc1ccc2c(ccn2S(=O)(=O)c2ccc(Br)c(CN3CCN(C)CC3)c2)c1` [Example 2, 1-[4-Bromo-3-(4-methylpiperazin-1-ylmethyl)benzenesulfonyl]-5-methoxy-1H-indole], the melting point lay within 115.2 to 120 °C. On to `Cc1cn(S(=O)(=O)c2ccc(Cl)c(CN3CCCN(C)CC3)c2)c2ccccc12` [Example 46, 1-[4-Chloro-3-(4-methyl[1,4]diazepan-1-ylmethyl)benzenesulfonyl]-3-methyl-1H-indole dihydrochloride], for which the inhibition at 0.1 µM at Human 5-HT6 receptor came to 92.2%.

For `CN1CCN(Cc2cc(S(=O)(=O)n3ccc4cc(Br)ccc43)ccc2Br)CC1.Cl.Cl`, the melting point is 208.2 to 209.2 °C. Same read-out and setting: the same measure for `CN1CCN(Cc2cc(S(=O)(=O)n3ccc4cc(F)ccc43)ccc2Br)CC1.Cl.Cl`: 219.4 to 221.6 °C. Regarding `COc1ccc2c(ccn2S(=O)(=O)c2cccc(CN3CCN(C)CC3)c2)c1` [Example 9, 5-Methoxy-1-[3-(4-methylpiperazin-1-ylmethyl)benzenesulfonyl]-1H-indole], on Human 5-HT6 receptor, the inhibition at 0.1 µM was determined as 67.6%.

As to `CN1CCN(Cc2cc(S(=O)(=O)n3cc(Br)c4cc(F)ccc43)ccc2Cl)CC1` [Example 5, 1-[4-Chloro-3-(4-methylpiperazin-1-ylmethyl)benzenesulfonyl]-5-fluoro-3-bromo-1H-indole], the melting point fell in the range of 161.3 to 162.6 °C. The same measure, in the same setting: the same measure for `CN1CCN(Cc2cc(S(=O)(=O)n3ccc4cc(Br)ccc43)ccc2Cl)CC1.Cl.Cl`: 214.7 to 215.6 °C; for `CCN1CCN(Cc2cc(S(=O)(=O)n3cc(C)c4ccccc43)ccc2Cl)CC1.Cl.Cl`: 218.9 to 220.5 °C. The same measure, in the same setting: in the case of `COc1ccc2c(c1)c(C)cn2S(=O)(=O)c1ccc(Cl)c(CN2CCN(C)CC2)c1.Cl.Cl` it was 213.3 to 214.2 °C.

The values above are taken from patent publication US8318725B2, “Aryl indolyl sulfonamide compounds and their use as 5-HT6 ligands” (Suven Life Sciences Limited, priority 2008, dated 2012).
